# Reference: patent publication US20230133910A1, “NEW METHOD FOR DETECTING AND QUANTIFYING RNA” (EAST CHINA UNIVERSITY OF SCIENCE AND TECHNOLOGY, priority 2020, published 2023)
# What was measured:
# Carrot-1 RNA aptamer = assay: Properties of Carrot-1 RNA aptamer with different fluorophores (spectra, extinction coefficient, quantum yield, activation fold); type: biochemical; details: for Emmax / Exmax / Extinction coefficient / Quantum yield: fluorophore bound to Carrot-1 RNA aptamer; for Activation fold: fluorophore with Carrot-1 RNA aptamer versus fluorophore alone
# Experimental: (§1) (5) Function detection of nucleic acid aptamers Carrot or Carrot mutant nucleic acid aptamer molecules were prepared according to common experimental method (I), 5 μM of nucleic acid aptamer molecules and 1 μM of fluorophore molecules were incubated in detection buffer (40 mM HEPES, pH 7.4, 125 mM KCl, 5 mM MgCl2, 5% DMSO), and Synergy Neo2 multifunctional microplate reader was used for detecting and obtaining the maximum excitation peak and the maximum emission peak of the fluorescence of the nucleic acid aptamer-fluorophore molecule complex. The Synergy Neo2 multifunctional microplate reader was used again for detecting the fluorescence intensity of the aptamer-fluorophore molecule complex under its maximum excitation and emission conditions. Control sample (1 μM of fluorophore molecules without nucleic acid aptamer) was measured under the same condition, and the ratio of fluorescence intensity was calculated. […] By using Synergy Neo2 multifunctional microplate reader, it was detected that the fluorescence intensity of the complex was 5720 when it was excited at 524±10 nm and emitted under the emission condition of 580 nm±10 nm, while fluorescence intensity of the control sample (1 μM of IV-39 fluorophore molecules) under the same detection condition was 20, so the activation multiple of Carrot-1 nuclear acid aptamer to IV-39 fluorophore molecule was 286.
# In order to detect the spectral properties of the Carrot-IV-39 complex, Carrot-1 (SEQ ID NO: 2) RNA was prepared according to the commonly used experimental method (1). 1 μM IV-39 with 5 μM Carrot-1 was incubated.
# Carrot-1 RNA aptamer was prepared according to the commonly used experimental methods (1), and was used to detect the properties of IV-39 analogues upon Carrot binding, including the fluorescence spectrum, extinction coefficient, quantum yield and fluorescence activation fold. From the data shown in the table, Carrot-1 still could activate the fluorescence of IV-39 analogues.
# [1] = Fluorescence activation of IV-39 by base-modified Carrot; type: biochemical; details: control buffer
# Experimental: as §1, with “286. […]” for “286.”
Molecule,Emmax (Carrot-1 RNA aptamer) [nm],Exmax (Carrot-1 RNA aptamer) [nm],Extinction coefficient (Carrot-1 RNA aptamer) [M⁻¹ cm⁻¹],Quantum yield (Carrot-1 RNA aptamer),Activation fold (Carrot-1 RNA aptamer) [fold],activation of the fluorescence of IV-39 fluorophore [1]
CN1C(=O)/C(=C/c2cc(F)c(O)c(F)c2)N=C1/C=C/c1cccc(O)c1 [Carrot-1-IV-4],574,490,23000,0.37,191,–
CN1C(=S)/C(=C/c2cc(F)c(O)c(F)c2)N=C1/C=C/c1ccc(F)cc1 [Carrot-1-IV-7],598,514,24000,0.27,201,–
CN1C(=S)/C(=C/c2cc(F)c(O)c(F)c2)N=C1/C=C/c1ccc(C#N)cc1 [Carrot-1-IV-8],638,534,22500,0.21,68,–
CC(C)CN1C(=O)/C(=C/c2cc(F)c(O)c(Br)c2)N=C1/C=C/c1ncc(C#N)cn1 [Carrot-1-IV-11],614,507,21000,0.05,16,–
COCCOCCOCCOCCN1C(=O)/C(=C/c2cc(F)c(O)c(I)c2)N=C1/C=C/c1ccc(Cl)cc1 [Carrot-1-IV-12],577,482,19000,0.03,6,–
CNC(=O)CN1C(=O)/C(=C/c2cc(Cl)c(O)c(Cl)c2)N=C1/C=C/c1ccc(Br)cc1 [Carrot-1-IV-13],579,478,20000,0.02,5,–
C#CCN1C(=O)/C(=C/c2ccc(O)c(Cl)c2)N=C1/C=C/c1ccc(I)cc1 [Carrot-1-IV-14],585,482,21000,0.02,6,–
O=C1/C(=C/c2ccc(O)c(Br)c2)N=C(/C=C/c2cccc(Cl)c2)N1CCO [Carrot-1-IV-15],578,480,21000,0.03,7,–
CN1C(=O)/C(=C/c2cc(Br)c(O)c(Br)c2)N=C1/C=C/c1ccc(F)cc1 [Carrot-1-IV-16],587,485,22000,0.08,34,–
CN1C(=O)/C(=C/c2ccc(N(C)CCO)cc2)N=C1/C=C/c1cccc(O)c1 [Carrot-1-IV-17],582,524,32000,0.47,282,–
CN1C(=O)/C(=C/c2ccc(N(C)CCO)cc2)N=C1/C=C/c1cccc(F)c1 [Carrot-1-IV-19],590,522,30000,0.43,331,–
CN1C(=O)/C(=C/c2ccc(N(C)CCO)cc2)N=C1/C=C/c1ccc(F)cc1 [Carrot-1-IV-22],580,522,32000,0.46,301,–
C=CCOCCN(C)c1ccc(/C=C2N=C(/C=C/c3ccccc3C#N)N(C)C\2=S)cc1 [Carrot-1-IV-23],648,547,19000,0.12,57,–
CCCN1C(=S)/C(=C/c2ccc(N(C)C)nc2)N=C1/C=C/c1ccccc1F [Carrot-1-IV-24],615,498,21000,0.09,45,–
CCN(CC)c1ccc(/C=C2N=C(/C=C/c3ccc(Cl)cc3)N(CC(=O)OC)C\2=O)nc1 [Carrot-1-IV-25],574,475,18000,0.02,4,–
CN1C(=O)/C(=C/c2cnc(N(C)CCC#N)nc2)N=C1/C=C/c1ccccc1I [Carrot-1-IV-27],576,472,19000,0.09,57,–
CN1CCc2cc(/C=C3N=C(/C=C/c4ccc(F)nc4)N(CCO)C\3=O)ccc21 [Carrot-1-IV-28],579,476,19000,0.04,19,–
CN1C(=O)/C(=C/c2ccc(N(C)CCS(=O)(=O)O)cc2)N=C1/C=C/c1ccc(C#N)cc1 [Carrot-1-IV-29],619,531,27000,0.26,87,–
CN1CCc2cc(/C=C3N=C(/C=C/c4ccc(Br)nc4)N(CC(F)(F)F)C\3=O)ccc21 [Carrot-1-IV-30],588,485,19000,0.05,15,–
COCCOCCOCCOCC(=O)OCCN(C)c1ccc(/C=C2N=C(/C=C/c3ccc(C#N)cc3)N(C)C\2=O)cc1 [Carrot-1-IV-31],621,508,24000,0.15,75,–
COC(=O)CNCCN(C)c1ccc(/C=C2N=C(/C=C/c3ccc(Br)cc3)N(C)C\2=O)cc1 [Carrot-1-IV-32],591,489,22000,0.11,64,–
CN1C(=O)/C(=C/c2ccc(N(C)CCN)cc2)N=C1/C=C/c1cccc(F)c1 [Carrot-1-IV-33],592,519,28000,0.38,287,–
CN(C)CCN(C)c1ccc(/C=C2N=C(/C=C/c3cccc(F)c3)N(C)C\2=O)cc1 [Carrot-1-IV-34],581,515,29000,0.38,287,–
CN1C(=O)/C(=C/c2ccc(N)cc2)N=C1/C=C/c1ccc(C#N)cc1 [Carrot-1-IV-35],619,527,21000,0.14,97,–
C#CCOCCN(C)c1ccc(/C=C2N=C(/C=C/c3ccc(F)cc3)N(C)C\2=O)cc1 [Carrot-1-IV-36],578,511,22000,0.28,262,–
CN1C(=O)/C(=C/c2cc(F)c(O)c(F)c2)N=C1/C=C/c1ccccn1 [Carrot-1-IV-38],581,519,26000,0.31,257,–
"Carrot-3: base-modified Carrot, SEQ ID NO: 5, GGGAAGATTGTAAACACGCCGAAAGGCGGACACTTCCC containing deoxyribonucleotide bases (GGGAAGAUUGUAAACACGCCGAAAGGCGGACACUUCCC; some positions are deoxyribonucleotides, which ones are not given here in text)",–,–,–,–,–,significantly activate
"Carrot-4: base-modified Carrot, SEQ ID NO: 6, GGGAAGATTGTAAACACGCCGAAAGGCGGACACTTCCC containing 2′-F modification (GGGAAGAUUGUAAACACGCCGAAAGGCGGACACUUCCC; some positions carry 2'-F, which ones are not given here in text)",–,–,–,–,–,significantly activate
